Values after ≈ are worked out from the molar mass of the structure shown.
System: H1N1-TR (Tamiflu resistant virus strain)
Test: microbe, parasite or virus in culture
Type: cell-based
Settings: unidentified influenza virus, H1N1, read-out: MIC, H1N1-TR

SMILES | MIC [µg/mL]
C/C=C(\C)C(=O)O[C@H]1c2cc(OC)c(OC)c(OC)c2-c2c(cc3c(c2OC)OCO3)C[C@H](C)[C@@]1(C)O (atropisomer, axis not shown) [Tigloylgomisin P] | 75 (≈ 146 µM)
COc1cc2c(cc1O)C(=O)[C@@H](C)[C@@H](C)[C@@H]2c1ccc(OC)c(OC)c1 [Schisandrone] | 6.25 (≈ 17.5 µM)
COc1cc([C@@H]2c3cc(OC)c(O)cc3C(=O)[C@H](C)[C@H]2C)ccc1O [Epiwulignan A1] | 12.5 (≈ 36.5 µM)
COc1cc2c(c(OC)c1OC)-c1c(cc3c(c1OC)OCO3)C[C@H](C)[C@@](C)(O)[C@H]2OC(=O)c1ccccc1 (atropisomer, axis not shown) [Benzoylgomisin P] | 12.5 (≈ 23.3 µM)
NC(=O)c1ncn([C@@H]2O[C@H](CO)[C@@H](O)[C@H]2O)n1 [Ribavirin, ribavirin, reference compound] | 3.12 (≈ 12.8 µM)
COc1cc([C@@H]2c3cc(OC)c(O)cc3C(=O)[C@@H](C)[C@H]2C)ccc1O [Wulignan A1] | 12.5 (≈ 36.5 µM)

Source: patent US8414938B2, “Schisandrae fructus extracts for inhibition or prevention of H1N1 influenza virus infection and its application thereof” (National Defense Medical Center, priority 2011, dated 2013)
